Data on 8 compounds can be found in PubChem BioAssay (NCI).

Some test systems named below: HL-60(TB) leukemia; TK-10 renal; HOP-92 NSCLC; HT29 colon; T-47D breast; HCT-116 colon; MOLT-4 leukemia; HS 578T breast; MCF7 breast; DU-145 prostate; NCI-H226 lung; OVCAR-3 ovarian; NCI/ADR-RES ovarian; HCC-2998 colon; PC-3 prostate; CAKI-1 renal; CCRF-CEM leukemia; LOX IMVI melanoma; MALME-3M melanoma; NCI-H522 lung.
Holding throughout (assay): NCI anticancer screen, dose series, 48 h

SMILES strings stand for the structures.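 The compound was tested at five concentrations on cells cultured in 96-well plates, with a 48-hour exposure period. TGI: total growth inhibition.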

As for `Cc1ccc(S(=O)(=O)N2CCSCCSCCSCCN(S(=O)(=O)c3ccc(C)cc3)CC2)cc1`, the TGI in the assay on HL-60(TB) leukemia, in the assay with TK-10 renal, with HOP-92 NSCLC, with HT29 colon, in the assay with T-47D breast and with HCT-116 colon was over 100 µM throughout. For the same compound, the TGI in the assay with MOLT-4 leukemia, in the assay on HS 578T breast, in the assay on MCF7 breast, in the assay with DU-145 prostate, with NCI-H226 lung and in the assay with OVCAR-3 ovarian was over 100 µM throughout. Also, the TGI with NCI/ADR-RES ovarian and in the assay on HCC-2998 colon was over 100 µM throughout.
As to `C[C@@H]1CC[C@H]2[C@H](C)C(OC3O[C@@H]4O[C@@]5(C)CC[C@H]6[C@H](C)CC[C@@H]([C@@H]3C)[C@@]46O5)O[C@@H]3O[C@@]4(C)CC[C@@H]1[C@]32O4` (stereo not given in full), the TGI with PC-3 prostate, with HL-60(TB) leukemia, with TK-10 renal, in the assay with HT29 colon, in the assay on T-47D breast and with HCT-116 colon was over 100 µM in each case. For the same compound, the TGI in the assay with CAKI-1 renal, with MOLT-4 leukemia, in the assay with CCRF-CEM leukemia, in the assay on HS 578T breast, in the assay on LOX IMVI melanoma and in the assay on MCF7 breast was over 100 µM in each case. Besides, the TGI in the assay with MALME-3M melanoma, in the assay on DU-145 prostate, in the assay on NCI-H226 lung, in the assay with NCI-H522 lung, in the assay with OVCAR-3 ovarian and in the assay with HCC-2998 colon was over 100 µM in each case.
Take `C1CCCN(NC2=NCCO2)CC1`: the TGI in the assay on PC-3 prostate, in the assay with HL-60(TB) leukemia, with TK-10 renal, in the assay with HT29 colon, in the assay with T-47D breast and in the assay on HCT-116 colon was over 100 µM each time. Besides, the TGI in the assay with CAKI-1 renal, in the assay with MOLT-4 leukemia, in the assay on CCRF-CEM leukemia, in the assay with HS 578T breast, with LOX IMVI melanoma and in the assay on MCF7 breast was over 100 µM throughout. The TGI in the assay on MALME-3M melanoma, in the assay with NCI-H226 lung, in the assay on NCI-H522 lung, in the assay with OVCAR-3 ovarian, in the assay with NCI/ADR-RES ovarian and in the assay with HCC-2998 colon was over 100 µM throughout.
Regarding `COC(=O)[C@@](NC(=O)OCc1ccccc1)([C@H](C)O)C(F)(F)F`, the TGI in the assay with PC-3 prostate, in the assay with HL-60(TB) leukemia, in the assay with TK-10 renal, with HOP-92 NSCLC, in the assay with HT29 colon and in the assay with T-47D breast was over 100 µM each time. Also, the TGI in the assay with HCT-116 colon, with CAKI-1 renal, in the assay on MOLT-4 leukemia, with CCRF-CEM leukemia, in the assay with HS 578T breast and with LOX IMVI melanoma was over 100 µM each time. Further, the TGI with MALME-3M melanoma, in the assay on DU-145 prostate, in the assay with NCI-H226 lung, with NCI-H522 lung, in the assay with OVCAR-3 ovarian and with NCI/ADR-RES ovarian was over 100 µM each time. This compound showed a TGI with HCC-2998 colon of over 100 µM.
`Cc1cc(NS(=O)(=O)c2ccc(N=[N+]([O-])c3ccc(S(=O)(=O)Nc4cc(C)on4)cc3)cc2)no1`: the TGI in the assay with PC-3 prostate, in the assay on HL-60(TB) leukemia, in the assay on TK-10 renal, in the assay with HOP-92 NSCLC, in the assay with HT29 colon and in the assay on T-47D breast was over 100 µM in each case. The TGI with HCT-116 colon, in the assay with CAKI-1 renal, in the assay with MOLT-4 leukemia, with CCRF-CEM leukemia, in the assay with HS 578T breast and in the assay on LOX IMVI melanoma was over 100 µM in each case. For the same compound, the TGI in the assay with MCF7 breast, in the assay on MALME-3M melanoma, in the assay with DU-145 prostate, with NCI-H226 lung, with NCI-H522 lung and in the assay with OVCAR-3 ovarian was over 100 µM in each case. Moreover, the TGI with NCI/ADR-RES ovarian is over 100 µM.
Take `CCCCCCCCCCCCCCCCNC(=O)/C(=C\c1ccc(Cl)c(Cl)c1)NC(=O)c1ccccc1`: the TGI in the assay with PC-3 prostate was 74.6 µM; with HL-60(TB) leukemia it was 22 µM; with TK-10 renal, 48.8 µM; with HOP-92 NSCLC, 34.7 µM; in the assay with HT29 colon, over 100 µM; with T-47D breast it was over 100 µM. Moreover, the TGI with HCT-116 colon was over 100 µM; with CAKI-1 renal, over 100 µM; in the assay on MOLT-4 leukemia, 37.5 µM; in the assay on HS 578T breast it was over 100 µM; in the assay with LOX IMVI melanoma it was 54.2 µM; in the assay with MCF7 breast, 59.1 µM. The TGI was over 100 µM in the assay on MALME-3M melanoma; 70.7 µM in the assay with DU-145 prostate; 56.8 µM with NCI-H226 lung; over 100 µM in the assay on NCI-H522 lung; over 100 µM with OVCAR-3 ovarian; over 100 µM in the assay with NCI/ADR-RES ovarian.
For `Cc1ccc(S(=O)(=O)N2CCNCCN(S(=O)(=O)c3ccc(C)cc3)CCNCC2)cc1`, the TGI was 25.4 µM with HL-60(TB) leukemia; 44 µM with TK-10 renal; 46.7 µM in the assay with HOP-92 NSCLC; 30.2 µM in the assay with HT29 colon; 31.7 µM in the assay with T-47D breast; 28.5 µM in the assay on HCT-116 colon. Moreover, the TGI amounted to 73.5 µM in the assay with CAKI-1 renal; 35.7 µM in the assay on HS 578T breast; 25.6 µM in the assay on LOX IMVI melanoma; 53.8 µM in the assay on MCF7 breast; 33.1 µM with MALME-3M melanoma; 71.8 µM in the assay with DU-145 prostate. Further, the TGI with NCI-H226 lung was 44 µM; in the assay with NCI-H522 lung, 36.5 µM; in the assay on OVCAR-3 ovarian it was 27.7 µM; with NCI/ADR-RES ovarian, over 100 µM; with HCC-2998 colon it was 33.4 µM.
`CC(=O)/C(=C\I)c1ccccc1`: the TGI was found to be 5.08 µM with PC-3 prostate; 3.49 µM in the assay on HL-60(TB) leukemia; 26.8 µM in the assay with TK-10 renal; 4.74 µM with HOP-92 NSCLC; 2.29 µM with HT29 colon; 3.83 µM in the assay with T-47D breast. For the same compound, the TGI was 4.65 µM in the assay with HCT-116 colon; 5.35 µM with MOLT-4 leukemia; 5.19 µM in the assay with CCRF-CEM leukemia; 40.5 µM in the assay with HS 578T breast; 3.59 µM with LOX IMVI melanoma; 4.05 µM with MCF7 breast. Moreover, the TGI in the assay on MALME-3M melanoma was determined as 3.33 µM; in the assay on DU-145 prostate, 15.3 µM; in the assay with NCI-H226 lung, 47.6 µM; in the assay with OVCAR-3 ovarian, 3.23 µM; in the assay with NCI/ADR-RES ovarian, 25 µM.
